Bridge positions count the residues as written; N and C are the ends. Square brackets hold non-standard residues; d marks the D form. Peptide text beside a SMILES is read from it. Nle = CCCC[C@H](N)C(=O)O
How the values were obtained:
Assay in all cases: cell-based
[1] = target: T1, human Kv1.3 voltage-gated K+ channel (Homo sapiens, UniProt P22001); conditions: inhibition of thallium flux, CHO-DUKX cells with human Kv1.3; read-out: IC50
T1 construct: host or cells: CHO-DUKX

Kv1.1 = target: T2, Kv1.1 (Homo sapiens, UniProt Q09470); conditions: for IC50: CHO cells, whole-cell patch clamp, read-out: Potency IC50 (nM) Kv1.1; for Selectivity Kv1.1/Kv1.3: ratio IC50[Kv1.1]/IC50[Kv1.3]
T2 construct: expressed in transfected cells; host or cells: Chinese Hamster Ovary (CHO)

Kv1.2 = target: T3, Kv1.2 (Homo sapiens, UniProt P16389); conditions: for IC50: CHO cells, whole-cell patch clamp, read-out: Potency IC50 (nM) Kv1.2
T3 construct: expressed in transfected cells; host or cells: Chinese Hamster Ovary (CHO)

Kv1.3 = target: T4, Kv1.3 (Homo sapiens, UniProt P22001); conditions: CHO cells, whole-cell patch clamp; read-out: Potency IC50 (nM) Kv1.3
T4 construct: expressed in transfected cells; host or cells: Chinese Hamster Ovary (CHO)

Kv1.6 = target: T5, Kv1.6 (Homo sapiens, UniProt P17658); conditions: for IC50: CHO cells, whole-cell patch clamp, read-out: Potency IC50 (nM) Kv1.6; for Selectivity Kv1.6/Kv1.3: ratio IC50[Kv1.6]/IC50[Kv1.3]
T5 construct: expressed in transfected cells; host or cells: Chinese Hamster Ovary (CHO)
T5 sequence (P17658 whole entry): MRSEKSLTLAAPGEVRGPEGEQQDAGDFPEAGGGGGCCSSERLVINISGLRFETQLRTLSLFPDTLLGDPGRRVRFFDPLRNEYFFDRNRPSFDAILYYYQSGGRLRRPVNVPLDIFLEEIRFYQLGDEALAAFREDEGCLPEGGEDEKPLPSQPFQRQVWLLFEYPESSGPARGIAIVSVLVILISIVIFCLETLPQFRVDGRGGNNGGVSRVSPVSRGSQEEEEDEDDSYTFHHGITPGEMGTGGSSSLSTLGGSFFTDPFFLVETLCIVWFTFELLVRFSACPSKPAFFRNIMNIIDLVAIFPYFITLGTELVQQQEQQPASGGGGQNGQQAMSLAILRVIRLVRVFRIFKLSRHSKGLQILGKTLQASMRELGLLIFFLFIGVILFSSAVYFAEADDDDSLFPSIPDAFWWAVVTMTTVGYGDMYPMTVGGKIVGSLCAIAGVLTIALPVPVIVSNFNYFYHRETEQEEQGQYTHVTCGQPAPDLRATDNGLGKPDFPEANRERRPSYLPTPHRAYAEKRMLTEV

T3 sequence (P16389 whole entry): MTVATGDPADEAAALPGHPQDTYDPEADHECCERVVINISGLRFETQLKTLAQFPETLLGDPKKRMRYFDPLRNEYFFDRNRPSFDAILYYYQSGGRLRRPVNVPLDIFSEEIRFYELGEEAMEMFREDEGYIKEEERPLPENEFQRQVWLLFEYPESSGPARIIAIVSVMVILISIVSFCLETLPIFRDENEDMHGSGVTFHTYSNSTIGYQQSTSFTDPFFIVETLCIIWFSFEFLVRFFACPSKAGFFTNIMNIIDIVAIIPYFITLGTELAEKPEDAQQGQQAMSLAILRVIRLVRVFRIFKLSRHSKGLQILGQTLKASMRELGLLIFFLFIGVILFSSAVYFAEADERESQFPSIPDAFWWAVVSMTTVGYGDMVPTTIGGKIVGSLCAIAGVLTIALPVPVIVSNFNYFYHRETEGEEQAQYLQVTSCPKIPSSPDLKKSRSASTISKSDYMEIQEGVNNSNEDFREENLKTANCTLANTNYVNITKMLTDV
T2 sequence (Q09470 whole entry): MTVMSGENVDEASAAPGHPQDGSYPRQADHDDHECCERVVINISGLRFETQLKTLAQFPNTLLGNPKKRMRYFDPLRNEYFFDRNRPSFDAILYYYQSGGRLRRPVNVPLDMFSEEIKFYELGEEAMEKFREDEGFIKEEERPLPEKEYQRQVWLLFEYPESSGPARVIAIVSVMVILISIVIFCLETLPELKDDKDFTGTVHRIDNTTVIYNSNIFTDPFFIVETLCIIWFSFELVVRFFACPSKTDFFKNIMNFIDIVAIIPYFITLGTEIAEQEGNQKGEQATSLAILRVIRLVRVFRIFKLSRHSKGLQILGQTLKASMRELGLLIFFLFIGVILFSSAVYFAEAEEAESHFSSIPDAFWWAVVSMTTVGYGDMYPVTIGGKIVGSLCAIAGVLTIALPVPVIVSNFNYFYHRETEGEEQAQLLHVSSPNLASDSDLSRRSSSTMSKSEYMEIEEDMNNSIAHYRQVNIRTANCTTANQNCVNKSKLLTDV
T4 sequence (P22001 whole entry): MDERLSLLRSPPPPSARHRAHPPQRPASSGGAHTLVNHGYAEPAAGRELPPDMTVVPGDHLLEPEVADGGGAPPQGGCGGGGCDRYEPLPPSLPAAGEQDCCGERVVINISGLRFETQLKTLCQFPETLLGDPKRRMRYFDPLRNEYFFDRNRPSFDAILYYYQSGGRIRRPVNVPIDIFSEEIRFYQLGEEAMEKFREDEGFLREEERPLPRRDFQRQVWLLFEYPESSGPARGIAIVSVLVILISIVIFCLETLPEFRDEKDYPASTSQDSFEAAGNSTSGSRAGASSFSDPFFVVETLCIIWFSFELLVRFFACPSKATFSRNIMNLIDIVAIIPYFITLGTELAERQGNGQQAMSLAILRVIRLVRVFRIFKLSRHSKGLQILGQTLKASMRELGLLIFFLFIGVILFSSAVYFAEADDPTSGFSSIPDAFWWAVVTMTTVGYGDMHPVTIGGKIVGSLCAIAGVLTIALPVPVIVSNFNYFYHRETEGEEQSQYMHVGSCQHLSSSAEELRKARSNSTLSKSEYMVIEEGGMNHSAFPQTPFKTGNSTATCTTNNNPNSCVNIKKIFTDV
T1 sequence (P22001 whole entry): as above

| Compound | IC50 [1] [nM] | IC50 (Kv1.1) [nM] | Selectivity Kv1.1/Kv1.3 (Kv1.1) | IC50 (Kv1.2) [nM] | Selectivity Kv1.2/Kv1.3 (Kv1.2; ratio IC50[Kv1.2]/IC50[Kv1.3]) | IC50 (Kv1.3) [nM] | IC50 (Kv1.6) [nM] | Selectivity Kv1.6/Kv1.3 (Kv1.6) |
| --- | --- | --- | --- | --- | --- | --- | --- | --- |
| CCCC[C@@H]1NC(=O)[C@@H]2CSSC[C@H](N)C(=O)N[C@@H](CO)C(=O)N[C@@H](C)C(=O)N[C@@H](CO)C(=O)N[C@@H](C(C)C)C(=O)N[C@@H](CCC(=O)O)C(=O)N[C@H]3CSSC[C@H](NC(=O)[C@H](CCCCN)NC(=O)[C@H](CCCCN)NC(=O)[C@H](CC(N)=O)NC1=O)C(=O)N[C@@H](CCCCN)C(=O)N[C@H](C(=O)N[C@@H](Cc1ccc(O)cc1)C(=O)N1CCC[C@H]1C(=O)N[C@@H](CCCNC(=N)N)C(N)=O)CSSC[C@H](NC(=O)[C@H](CCCCN)NC(=O)[C@H](CCC(N)=O)NC(=O)[C@H](CCCCN)NC3=O)C(=O)N[C@@H](CC(C)C)C(=O)N[C@@H](CCCCN)C(=O)N[C@@H](C)C(=O)N[C@@H]([C@@H](C)CC)C(=O)NCC(=O)N[C@@H](CO)C(=O)N[C@@H]([C@@H](C)CC)C(=O)N[C@@H](Cc1ccccc1)C(=O)NCC(=O)N[C@@H](CCCCN)C(=O)N2 [Compound 104] (H-CSASVECKQKCLKAIGSIFGKC[Nle]NKKCKCYPR-NH2; disulfide 1-22, 7-27, 11-29) | 0.12 | > 3000 | >7000 | > 3000 | >7000 | 0.43 | > 3000 | >7000 |
| CC[C@H](C)[C@@H]1NC(=O)[C@H](C)NC(=O)[C@H](CCCCN)NC(=O)[C@H](CC(C)C)NC(=O)[C@@H]2CSSC[C@@H](C(=O)N[C@@H](Cc3ccc(O)cc3)C(=O)N3CCC[C@H]3C(=O)N[C@@H](CCCNC(=N)N)C(N)=O)NC(=O)[C@H](CCCCN)NC(=O)[C@@H]3CSSC[C@H](NC(=O)[C@H](CCC(=O)O)NC(=O)[C@H](C(C)C)NC(=O)[C@H](CO)NC(=O)[C@H](C)NC(=O)[C@H](CO)NC(=O)[C@@H](NC(=O)[C@H](CCCNC(=N)N)NC(=O)[C@H](CCSC)NC(=O)[C@H](CC(=O)O)NC(=O)[C@H](CCSC)NC(=O)[C@@H](N)CC(N)=O)CSSC[C@H](NC(=O)[C@H](CCCCN)NC(=O)CNC(=O)[C@H](Cc4ccccc4)NC(=O)[C@H]([C@@H](C)CC)NC(=O)[C@H](CO)NC(=O)[C@H](CCC(=O)O)NC1=O)C(=O)N[C@@H](CCSC)C(=O)N[C@@H](CC(N)=O)C(=O)N[C@@H](CCCCN)C(=O)N[C@@H](CCCCN)C(=O)N3)C(=O)N[C@@H](CCCCN)C(=O)N[C@@H](CCC(N)=O)C(=O)N[C@@H](CCCCN)C(=O)N2 [Compound 22] (H-NMDMRCSASVECKQKCLKAIESIFGKCMNKKCKCYPR-NH2; disulfide 6-27, 12-32, 16-34) | 0.11 | > 3000 | >10200 | 181 | – | 0.29 | > 3000 | >10200 |
| CC[C@H](C)[C@@H]1NC(=O)[C@H](C)NC(=O)[C@H](CCCCN)NC(=O)[C@H](CC(C)C)NC(=O)[C@@H]2CSSC[C@@H](C(=O)N[C@@H](Cc3ccc(O)cc3)C(=O)N3CCC[C@H]3C(=O)N[C@@H](CCCNC(=N)N)C(=O)O)NC(=O)[C@H](CCCCN)NC(=O)[C@@H]3CSSC[C@H](NC(=O)[C@H](CCC(=O)O)NC(=O)[C@H](C(C)C)NC(=O)[C@H](CO)NC(=O)[C@H](C)NC(=O)[C@H](CO)NC(=O)[C@@H](N)CSSC[C@H](NC(=O)[C@H](CCCCN)NC(=O)CNC(=O)[C@H](Cc4ccccc4)NC(=O)[C@H]([C@@H](C)CC)NC(=O)[C@H](CO)NC(=O)CNC1=O)C(=O)N[C@@H](CCSC)C(=O)N[C@@H](CC(N)=O)C(=O)N[C@@H](CCCCN)C(=O)N[C@@H](CCCCN)C(=O)N3)C(=O)N[C@@H](CCCCN)C(=O)N[C@@H](CCC(N)=O)C(=O)N[C@@H](CCCCN)C(=O)N2 [Compound 117] (H-CSASVECKQKCLKAIGSIFGKCMNKKCKCYPR-OH; disulfide 1-22, 7-27, 11-29) | 1.5 | > 3000 | >1400 | 1830 | – | 2.09 | > 3000 | >1400 |
| CC[C@H](C)[C@@H]1NC(=O)[C@H](C)NC(=O)[C@H](CCCCN)NC(=O)[C@H](CC(C)C)NC(=O)[C@@H]2CSSC[C@@H](C(=O)N[C@@H](Cc3ccc(O)cc3)C(=O)N3CCC[C@H]3C(=O)N[C@@H](CCCNC(=N)N)C(N)=O)NC(=O)[C@H](CCCCN)NC(=O)[C@@H]3CSSC[C@H](NC(=O)[C@H](CCC(=O)O)NC(=O)[C@H](C(C)C)NC(=O)[C@H](CO)NC(=O)[C@H](C)NC(=O)[C@H](CO)NC(=O)[C@@H](NC(=O)[C@H](CCCNC(=N)N)NC(=O)[C@H](CCSC)NC(=O)[C@H](CC(=O)O)NC(=O)[C@H](CCSC)NC(=O)[C@@H](N)CC(N)=O)CSSC[C@H](NC(=O)[C@H](CCCCN)NC(=O)CNC(=O)[C@H](Cc4ccccc4)NC(=O)[C@H]([C@@H](C)CC)NC(=O)[C@H](CO)NC(=O)CNC1=O)C(=O)N[C@@H](CCSC)C(=O)N[C@@H](CC(N)=O)C(=O)NCC(=O)N[C@@H](CCCCN)C(=O)N3)C(=O)N[C@@H](CCCCN)C(=O)N[C@@H](CCC(N)=O)C(=O)N[C@@H](CCCCN)C(=O)N2 [Compound 36] (H-NMDMRCSASVECKQKCLKAIGSIFGKCMNGKCKCYPR-NH2; disulfide 6-27, 12-32, 16-34) | 0.24 | > 3000 | >9700 | 439 | – | 0.31 | > 3000 | >9700 |
| CC[C@H](C)[C@@H]1NC(=O)[C@H](C)NC(=O)[C@H](CCCCN)NC(=O)[C@H](CC(C)C)NC(=O)[C@@H]2CSSC[C@@H](C(=O)N[C@@H](Cc3ccc(O)cc3)C(=O)N3CCC[C@H]3C(=O)N[C@@H](CCCNC(=N)N)C(N)=O)NC(=O)[C@H](CCCCN)NC(=O)[C@@H]3CSSC[C@H](NC(=O)[C@H](CCC(=O)O)NC(=O)[C@H](C(C)C)NC(=O)[C@H](CO)NC(=O)[C@H](C)NC(=O)[C@H](CCCCN)NC(=O)[C@@H](NC(=O)[C@H](CCCNC(=N)N)NC(=O)[C@H](CCSC)NC(=O)[C@H](CC(=O)O)NC(=O)[C@H](CCSC)NC(=O)[C@@H](N)CC(N)=O)CSSC[C@H](NC(=O)[C@H](CCCCN)NC(=O)CNC(=O)[C@H](Cc4ccccc4)NC(=O)[C@H]([C@@H](C)CC)NC(=O)[C@H](CO)NC(=O)CNC1=O)C(=O)N[C@@H](CCSC)C(=O)N[C@@H](CC(N)=O)C(=O)N[C@@H](CCCCN)C(=O)N[C@@H](CCCCN)C(=O)N3)C(=O)N[C@@H](CCCCN)C(=O)N[C@@H](CCC(N)=O)C(=O)N[C@@H](CCCCN)C(=O)N2 [Compound 25] (H-NMDMRCKASVECKQKCLKAIGSIFGKCMNKKCKCYPR-NH2; disulfide 6-27, 12-32, 16-34) | 0.085 | > 3000 | >34200 | 67 | – | 0.09 | 363 | – |
| CC[C@H](C)[C@@H]1NC(=O)[C@H](C)NC(=O)[C@H](CCCCN)NC(=O)[C@H](CC(C)C)NC(=O)[C@@H]2CSSC[C@@H](C(=O)N[C@@H](Cc3ccc(O)cc3)C(=O)N3CCC[C@H]3C(=O)N[C@@H](CCCNC(=N)N)C(=O)O)NC(=O)[C@H](CCCCN)NC(=O)[C@@H]3CSSC[C@H](NC(=O)[C@H](CCC(=O)O)NC(=O)[C@H](C(C)C)NC(=O)[C@H](CO)NC(=O)[C@H](C)NC(=O)[C@H](CO)NC(=O)[C@@H](NC(=O)[C@H](CCCNC(=N)N)NC(=O)[C@H](CCSC)NC(=O)[C@H](CC(=O)O)NC(=O)[C@H](CCSC)NC(=O)[C@@H](N)CCC(N)=O)CSSC[C@H](NC(=O)[C@H](CCCCN)NC(=O)CNC(=O)[C@H](Cc4ccccc4)NC(=O)CNC(=O)[C@H](CCCNC(=N)N)NC(=O)CNC1=O)C(=O)N[C@@H](CCSC)C(=O)N[C@@H](CC(N)=O)C(=O)N[C@@H](CCCCN)C(=O)N[C@@H](CCCCN)C(=O)N3)C(=O)N[C@@H](CCCCN)C(=O)N[C@@H](CCC(N)=O)C(=O)N[C@@H](CCCCN)C(=O)N2 [Compound 2] (H-QMDMRCSASVECKQKCLKAIGRGFGKCMNKKCKCYPR-OH; disulfide 6-27, 12-32, 16-34) | 0.25 | > 3000 | >2000 | 97 | – | 1.5 | 1810 | – |
| CCCC[C@@H]1NC(=O)[C@@H]2CSSC[C@H](NC(=O)[C@H](CCCNC(=N)N)NC(=O)[C@H](CCCC)NC(=O)[C@H](CC(=O)O)NC(=O)[C@H](CCCC)NC(=O)[C@@H](N)CC(N)=O)C(=O)N[C@@H](CO)C(=O)N[C@@H](C)C(=O)N[C@@H](CO)C(=O)N[C@@H](C(C)C)C(=O)N[C@@H](CCC(=O)O)C(=O)N[C@H]3CSSC[C@H](NC(=O)[C@H](CCCCN)NC(=O)[C@H](CCCCN)NC(=O)[C@H](CC(N)=O)NC1=O)C(=O)N[C@@H](CCCCN)C(=O)N[C@H](C(=O)N[C@@H](Cc1ccc(O)cc1)C(=O)N1CCC[C@H]1C(=O)N[C@@H](CCCNC(=N)N)C(N)=O)CSSC[C@H](NC(=O)[C@H](CCCCN)NC(=O)[C@H](CCC(N)=O)NC(=O)[C@H](CCCCN)NC3=O)C(=O)N[C@@H](CC(C)C)C(=O)N[C@@H](CCCCN)C(=O)N[C@@H](C)C(=O)N[C@@H]([C@@H](C)CC)C(=O)NCC(=O)N[C@@H](CO)C(=O)N[C@@H]([C@@H](C)CC)C(=O)N[C@@H](Cc1ccccc1)C(=O)NCC(=O)N[C@@H](CCCCN)C(=O)N2 [Compound 40] (H-N[Nle]D[Nle]RCSASVECKQKCLKAIGSIFGKC[Nle]NKKCKCYPR-NH2; disulfide 6-27, 12-32, 16-34) | 0.1 | > 3000 | >11600 | 113 | – | 0.26 | 1830 | – |
